No end group written: not given here.
What was measured:
[1] = test system: pancreas; conditions: cited from earlier work
[2] = test system: HM dog model (pacing-induced heart failure); experiment: Paced dog model of hibernating myocardium: 48 h i.v. infusion, plasma catecholamines and hemodynamics; type: in vivo, Beagle dogs; conditions: for LV contractility (dP/dt) restored to: Dog A (FIG. 1); for LV ejection fraction (LVEF) improved to: Dog A (FIG. 2); for LV wall thickening: Dog A (FIG. 3); for Cardiac output (CO): Dog A (FIG. 4); for CBF (coronary blood flow) / LVEDP (LV end-diastolic pressure) / LVP (left ventricular pressure) / MVO2 (myocardial oxygen consumption) / dP/dt (left ventricular contractility) / NE (plasma norepinepherine): GLP-1 group
From the text: The “paced dog” model, used in the Example below, provides a system to study NM, because the exertion of the heart exceeds the heart's ability to respond, which creates an energy-limited situation. Other suitable animal models are available to study chronically dysfunctional viable myocardium, in dogs and pigs, for example, which allow laboratory study of therapeutic regimens. […] Canty a al., Am. J. Physiol, 277; H417-H422 (1999). Similar animal models in diabetic dogs, mice and rats are available for the study of DCM. Bell (1995); Fein (1990).
Beagle dogs were fitted with telemetry devices that permit tong-term ambulatory data collection in conscious animals. These devices measured LV pressure, myocardial oxygen consumption (MVO2, an expression of myocardial efficiency), coronary flow (CBF), and cardiac output (CO). The dogs were “paced,” such that heart rate was forced up to about 240 beats per minute, for 3-4 weeks, which induces moderate HM in a predictable manner. This HM dog model is an accepted model for assessing the effectiveness of treatments for HM. Kiuchi et al., “Myocardial beta-adrenergic receptor function during the development of pacing-induced heart failure.” J. Clin. Invest. 91: 907-914 (1993).
During the treatment period, “pacing” was discontinued. Plasma catecholamines were assessed before and after infusion, along with LV pressures, coronary and systemic hemodynamics, and MVO2.

[3] = 48 h i.v. infusion 1.5 pmol/kg/min, after vs before
[4] = AFTER 48 h i.v. infusion 1.5 pmol/kg/min

Substance: Glu Gly Thr Phe Thr Ser Asp Val Ser Ser Tyr Leu Glu Gly Gln Ala Ala Lys Glu Phe Ile Ala Trp Lau Val Lys Gly Arg Gly (EGTFTSDVSSYLEGQAAKEFIAWLVKGRG; not fully specified; printed as Glu Gly Thr Phe Thr Ser Asp Val Ser Ser Tyr Leu Glu Gly Gln Ala Ala Lys Glu Phe Ile Ala Trp Lau Val Lys Gly Arg Gly) [SEQ ID NO:5]
- stimulation of production or release of insulin from the pancreas [1]: do not stimulate production or release of insulin

Substance: rGLP-1 (7-36) amide
- Effect of treatment on LV end-diastolic pressure (LVEDP), in words [2, 3]: significantly decreasing
- Effect of treatment on cardiac output (CO), in words [2, 3]: significantly (*p<0.05) increased
- Effect of treatment on coronary blood flow (CBF), in words [2, 3]: significantly (*p<0.05) increased
- Effect of treatment on left ventricular contractility (LV dP/dt), in words [2, 3]: significantly (*p<0.05) increased
- Effect of treatment on left ventricular pressure (LVP), in words [2, 3]: significantly (*p<0.05) increased
- Effect of treatment on myocardial oxygen consumption (MVO2), in words [2, 3]: significantly (*p<0.05) increased
- LV contractility (dP/dt) restored to ([2]; 24 hours of treatment, pacing had reduced contractility by 60%): 80 % of baseline
- LV contractility (dP/dt) restored to ([2]; 48 hours of treatment): 90 % of baseline
- LV ejection fraction (LVEF) improved to ([2]; 24 hours of treatment, pacing had reduced LVEF by 40%): 88 % of the baseline value
- LV ejection fraction (LVEF) improved to ([2]; 48 hours of treatment): 95 % of the baseline value
- LV wall thickening ([2]; 24 hours of treatment, pacing had reduced wall thickening by 20%): recovered
- LV wall thickening ([2]; 48 hours of treatment): 147 % of the baseline value
- Cardiac output (CO) ([2]; 24 hours of treatment, pacing had reduced CO by 30%): restored to baseline levels
- Cardiac output (CO) ([2]; 48 hours of treatment): 116 % of baseline
- CBF (coronary blood flow) [2, 4]: 37 ± 3 mL/min
- LVEDP (LV end-diastolic pressure) [2, 4]: 15 ± 1 mm Hg
- LVP (left ventricular pressure) [2, 4]: 108 ± 2 mm Hg
- MVO2 (myocardial oxygen consumption) [2, 4]: 297 ± 16 ml O2/min
- dP/dt (left ventricular contractility) [2, 4]: 2212 ± 86 mm Hg/s
- NE (plasma norepinepherine) ([2]; AFTER 48 h i.v. infusion 1.5 pmol/kg/min, *p<0.05): 1.62 ± 0.11* nmol/ml
- NE (plasma norepinepherine) ([2]; AFTER 48 h i.v. infusion 1.5 pmol/kg/min, *p<0.05, listed as CLP-1): 1.62 ± 0.11 nmol/mL
- CBF (coronary blood flow) ([2]; BEFORE infusion): 27 ± 1 mL/min
- LVEDP (LV end-diastolic pressure) ([2]; BEFORE infusion): 25 ± 1 mm Hg
- LVP (left ventricular pressure) ([2]; BEFORE infusion): 98 ± 2 mm Hg
- MVO2 (myocardial oxygen consumption) ([2]; BEFORE infusion): 246 ± 18 ml O2/min
- dP/dt (left ventricular contractility) ([2]; BEFORE infusion): 1127 ± 86 mm Hg/s
- NE (plasma norepinepherine) ([2]; BEFORE infusion (after 3-4 weeks pacing), five dogs): 2.30 ± 0.15 nmol/mL
- NE (plasma norepinepherine) ([2]; BEFORE infusion (after 3-4 weeks pacing), five dogs, listed as CLP-1): 2.30 ± 0.15 nmol/mL

Substance: Glu Gly Thr Phe Thr Ser Asp Val Ser Ser Tyr Leu Glu Gly Gln Ala Ala Lys Glu Phe Ile Ala Trp Leu Val Lys Gly Arg (NH2) (EGTFTSDVSSYLEGQAAKEFIAWLVKGR-NH2) [SEQ ID NO:6]
- stimulation of production or release of insulin from the pancreas [1]: do not stimulate production or release of insulin

Reference: patent US8551947B2, “Treatment of hibernating myocardium with an exendin peptide” (Amylin Pharmaceuticals, LLC, priority 2000, dated 2013)
